Assay results: ChEMBL document CHEMBL4673347, “Discovery of new thieno[2,3-d]pyrimidine and thiazolo[5,4-d]pyrimidine derivatives as orally active phosphoinositide 3-kinase inhibitors” (Bioorg Med Chem, 2021)
In brackets after ≈: the same amount, converted by molar mass. Activity calls are given as the source filed them. No cut-off for these calls is given here.

Legend:
[1] = test system: HGC-27; assay: Antitumor activity against human HGC-27 cells xenografted in BALB/c mouse assessed as reduction in Ki67 expression at 20 to 40 mg/kg, po administered for 25 days and measured on day 25 by […] immunohistochemistry; type: functional, organism-based; settings: dose 20-40 mg/kg, time 25.0 day
[2] = test system: NCI-H358; assay: Antiproliferative activity against human NCI-H358 cells assessed as reduction in cell viability incubated for 72 hrs measured after 4 hrs of MTT addition by MTT assay; type: functional, cell-based
[3] = test system: NCI-H460; assay: Antiproliferative activity against human NCI-H460 cells assessed as reduction in cell viability incubated for 72 hrs measured after 4 hrs of MTT addition by MTT assay; type: functional, cell-based
[4] = AUC (0 to infinity) in ICR mouse at 40 mg/kg, po measured upto 24 hrs by LC-MS/MS analysis; type: ADME, organism-based; set-up: route oral, dose 40 mg/kg, time <=24; settings: in vivo
[5] = biological target: Phosphatidylinositol 4,5-bisphosphate 3-kinase catalytic subunit gamma isoform (Homo sapiens, UniProt P48736); assay: Inhibition of recombinant human GST-tagged PI3Kgamma (468 to 1203 residues) expressed in insect expression system using PIP2 as substrate by ADP-Glo reagent based assay
Phosphatidylinositol 4,5-bisphosphate 3-kinase catalytic subunit gamma isoform, sequence (P48736 whole entry, the tested form may be a part, canonical isoform): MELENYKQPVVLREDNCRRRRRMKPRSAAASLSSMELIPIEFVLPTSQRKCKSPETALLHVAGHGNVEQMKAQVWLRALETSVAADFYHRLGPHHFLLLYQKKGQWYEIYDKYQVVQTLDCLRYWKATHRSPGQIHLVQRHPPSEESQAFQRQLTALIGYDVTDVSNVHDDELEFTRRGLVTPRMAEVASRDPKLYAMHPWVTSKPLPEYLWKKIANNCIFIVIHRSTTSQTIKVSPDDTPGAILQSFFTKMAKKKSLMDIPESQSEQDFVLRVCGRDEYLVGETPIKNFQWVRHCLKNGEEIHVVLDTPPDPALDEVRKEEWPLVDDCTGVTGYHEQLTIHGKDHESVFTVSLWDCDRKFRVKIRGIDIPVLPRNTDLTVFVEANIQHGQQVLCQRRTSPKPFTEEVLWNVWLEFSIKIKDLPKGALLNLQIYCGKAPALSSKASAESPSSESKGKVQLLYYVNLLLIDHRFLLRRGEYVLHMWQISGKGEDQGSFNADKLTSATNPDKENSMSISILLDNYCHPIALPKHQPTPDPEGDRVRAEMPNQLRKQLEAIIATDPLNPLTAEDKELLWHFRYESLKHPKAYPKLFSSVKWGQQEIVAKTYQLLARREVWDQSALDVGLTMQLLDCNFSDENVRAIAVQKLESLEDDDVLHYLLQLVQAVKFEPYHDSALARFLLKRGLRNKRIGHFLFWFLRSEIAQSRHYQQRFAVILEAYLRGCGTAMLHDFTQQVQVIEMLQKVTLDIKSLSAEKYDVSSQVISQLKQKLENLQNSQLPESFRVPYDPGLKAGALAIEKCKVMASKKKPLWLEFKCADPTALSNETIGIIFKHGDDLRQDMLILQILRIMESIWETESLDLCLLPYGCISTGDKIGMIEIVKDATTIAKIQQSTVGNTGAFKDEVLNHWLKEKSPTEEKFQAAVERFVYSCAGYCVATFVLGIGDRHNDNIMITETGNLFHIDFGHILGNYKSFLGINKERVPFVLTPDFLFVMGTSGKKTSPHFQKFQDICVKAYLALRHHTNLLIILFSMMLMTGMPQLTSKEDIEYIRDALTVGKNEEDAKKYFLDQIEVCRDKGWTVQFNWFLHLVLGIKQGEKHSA

[6] = test system: Mus musculus; assay: In vivo inhibition of PI3Kalpha in BALB/c mouse assessed as increase in plasma glucose level at 40 mg/kg, po measured after 30 mins; type: functional, organism-based
[7] = test system: HGC-27; assay: Antitumor activity against human HGC-27 cells xenografted in BALB/c mouse assessed as tumor growth inhibition at 40 mg/kg, po administered for 25 days and measured on day 25 relative to control; type: functional; settings: HGC-27, po, 600 h, time 25 day, read-out: TGI
[8] = test system: HGC-27; assay: Induction of apoptosis in human HGC-27 cells assessed as necrotic cells at 500 nM incubated for 24 hrs by annexin V-FITC and propidium iodide based staining based flow cytometry analysis (reference value: 1.95 %); type: functional
[9] = AUC (0 to t) in ICR mouse at 40 mg/kg, po measured upto 24 hrs by LC-MS/MS analysis; type: ADME, organism-based; set-up: route oral, dose 40 mg/kg, time <=24; settings: in vivo
[10] = AUC (0 to t) in ICR mouse at 4 mg/kg, iv measured upto 24 hrs by LC-MS/MS analysis; type: ADME, organism-based; set-up: route intravenous, dose 4 mg/kg, time <=24; settings: in vivo
[11] = Volume of distribution at steady state in ICR mouse at 4 mg/kg, iv measured upto 24 hrs by LC-MS/MS analysis; type: ADME, organism-based; settings: in vivo, read-out: Vdss
[12] = test system: HGC-27; assay: Induction of apoptosis in human HGC-27 cells assessed as late apoptotic cells at 500 nM incubated for 24 hrs by annexin V-FITC and propidium iodide based staining based flow cytometry analysis (reference value: 8.15 %); type: functional
[13] = test system: HGC-27; assay: Inhibition of PI3K signalling in human HGC-27 cells assessed as reduction in 4E-BP1 phosphorylation incubated for 3 hrs by Western blot analysis; type: cell-based; settings: dose 20-1000 nM
[14] = test system: HGC-27; assay: Inhibition of PI3K signalling in human HGC-27 cells assessed as reduction in AKT S473 phosphorylation incubated for 3 hrs by Western blot analysis; type: cell-based; settings: dose 20-1000 nM
[15] = Half life in ICR mouse at 4 mg/kg, iv measured upto 24 hrs by LC-MS/MS analysis; type: ADME, organism-based; settings: in vivo
[16] = test system: AGS; assay: Antiproliferative activity against human AGS cells assessed as reduction in cell viability incubated for 72 hrs measured after 4 hrs of MTT addition by MTT assay; type: functional, cell-based
[17] = Apparent permeability across basolateral to apical side in human Caco-2 cells; type: ADME, cell-based
[18] = Half life in ICR mouse at 40 mg/kg, po measured upto 24 hrs by LC-MS/MS analysis; type: ADME, organism-based; settings: in vivo
[19] = biological target: Phosphatidylinositol 4,5-bisphosphate 3-kinase catalytic subunit alpha isoform (Homo sapiens, UniProt P42336); assay: Inhibition of recombinant human full length His-tagged PI3Kalpha expressed in baculovirus expression system using PIP2 as substrate by ADP-Glo reagent based assay
Phosphatidylinositol 4,5-bisphosphate 3-kinase catalytic subunit alpha isoform, sequence (P42336 whole entry, canonical isoform): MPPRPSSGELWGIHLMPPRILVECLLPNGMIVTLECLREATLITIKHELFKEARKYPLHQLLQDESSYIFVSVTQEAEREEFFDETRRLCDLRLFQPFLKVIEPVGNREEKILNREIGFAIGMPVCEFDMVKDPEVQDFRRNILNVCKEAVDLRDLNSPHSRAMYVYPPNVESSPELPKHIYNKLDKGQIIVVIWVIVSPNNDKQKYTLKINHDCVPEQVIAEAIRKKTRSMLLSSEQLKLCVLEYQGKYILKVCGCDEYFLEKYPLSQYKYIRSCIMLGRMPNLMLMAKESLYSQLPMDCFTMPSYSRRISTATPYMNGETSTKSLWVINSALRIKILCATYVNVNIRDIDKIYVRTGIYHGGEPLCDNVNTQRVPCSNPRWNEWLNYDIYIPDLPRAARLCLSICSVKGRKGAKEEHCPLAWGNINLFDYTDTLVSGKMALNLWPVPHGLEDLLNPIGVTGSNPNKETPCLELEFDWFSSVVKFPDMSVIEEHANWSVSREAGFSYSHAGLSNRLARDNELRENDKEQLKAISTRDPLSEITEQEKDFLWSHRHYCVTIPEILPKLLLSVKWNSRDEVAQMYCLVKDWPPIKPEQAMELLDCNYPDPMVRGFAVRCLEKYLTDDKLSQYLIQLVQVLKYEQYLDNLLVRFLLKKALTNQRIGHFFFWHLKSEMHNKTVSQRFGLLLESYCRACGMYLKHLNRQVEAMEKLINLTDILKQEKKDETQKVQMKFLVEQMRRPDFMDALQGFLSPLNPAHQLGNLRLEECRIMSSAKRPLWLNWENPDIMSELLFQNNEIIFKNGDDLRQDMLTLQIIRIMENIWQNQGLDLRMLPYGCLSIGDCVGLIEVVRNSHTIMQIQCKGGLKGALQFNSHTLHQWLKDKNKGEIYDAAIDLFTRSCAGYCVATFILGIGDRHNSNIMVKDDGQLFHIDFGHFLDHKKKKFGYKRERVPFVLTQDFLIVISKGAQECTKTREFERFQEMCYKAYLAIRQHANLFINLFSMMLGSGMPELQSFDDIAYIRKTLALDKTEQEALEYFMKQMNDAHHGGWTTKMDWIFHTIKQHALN

[20] = test system: HGC-27; assay: Induction of apoptosis in human HGC-27 cells assessed as viable cells at 500 nM incubated for 24 hrs by annexin V-FITC and propidium iodide based staining based flow cytometry analysis (reference value: 83.7 %); type: functional; settings: read-out: Activity
[21] = test system: Mus musculus; assay: In vivo inhibition of PI3Kalpha in BALB/c mouse assessed as increase in plasma insulin level at 40 mg/kg, po measured after 30 mins by ELISA; type: functional, organism-based
[22] = test system: MKN-45; assay: Antiproliferative activity against human MKN-45 cells assessed as reduction in cell viability incubated for 72 hrs measured after 4 hrs of MTT addition by MTT assay; type: functional, cell-based
[23] = test system: HGC-27; assay: Inhibition of PI3K signalling in human HGC-27 cells assessed as reduction in S6RP S235/236 phosphorylation incubated for 3 hrs by Western blot analysis; type: cell-based; settings: dose 20-1000 nM
[24] = test system: BGC-823; assay: Antiproliferative activity against human BGC-823 cells assessed as reduction in cell viability incubated for 72 hrs measured after 4 hrs of MTT addition by MTT assay; type: functional, cell-based
[25] = test system: NCI-H1437; assay: Antiproliferative activity against human NCI-H1437 cells assessed as reduction in cell viability incubated for 72 hrs measured after 4 hrs of MTT addition by MTT assay; type: functional, cell-based
[26] = Antiproliferative activity against human KATO III stomach cancer cell line cells assessed as reduction in cell viability incubated for 72 hrs measured after 4 hrs of MTT addition by MTT assay; type: functional
[27] = test system: MGC-803; assay: Antiproliferative activity against human MGC-803 cells assessed as reduction in cell viability incubated for 72 hrs measured after 4 hrs of MTT addition by MTT assay; type: functional, cell-based
[28] = test system: Mus musculus; assay: In vivo inhibition of PI3Kalpha in BALB/c mouse assessed as increase in plasma insulin level at 40 mg/kg, po measured after 24 hrs; type: functional, organism-based
[29] = AUC (0 to infinity) in ICR mouse at 4 mg/kg, iv measured upto 24 hrs by LC-MS/MS analysis; type: ADME, organism-based; set-up: route intravenous, dose 4 mg/kg, time <=24; settings: in vivo
[30] = test system: SGC-7901; assay: Antiproliferative activity against human SGC-7901 cells assessed as reduction in cell viability incubated for 72 hrs measured after 4 hrs of MTT addition by MTT assay; type: functional, cell-based
[31] = biological target: Phosphatidylinositol 4,5-bisphosphate 3-kinase catalytic subunit delta isoform (Homo sapiens, UniProt O00329); assay: Inhibition of recombinant human full length His-tagged PI3Kdelta expressed in baculovirus expression system using PIP2 as substrate by ADP-Glo reagent based assay
Phosphatidylinositol 4,5-bisphosphate 3-kinase catalytic subunit delta isoform, sequence (O00329 whole entry, canonical isoform): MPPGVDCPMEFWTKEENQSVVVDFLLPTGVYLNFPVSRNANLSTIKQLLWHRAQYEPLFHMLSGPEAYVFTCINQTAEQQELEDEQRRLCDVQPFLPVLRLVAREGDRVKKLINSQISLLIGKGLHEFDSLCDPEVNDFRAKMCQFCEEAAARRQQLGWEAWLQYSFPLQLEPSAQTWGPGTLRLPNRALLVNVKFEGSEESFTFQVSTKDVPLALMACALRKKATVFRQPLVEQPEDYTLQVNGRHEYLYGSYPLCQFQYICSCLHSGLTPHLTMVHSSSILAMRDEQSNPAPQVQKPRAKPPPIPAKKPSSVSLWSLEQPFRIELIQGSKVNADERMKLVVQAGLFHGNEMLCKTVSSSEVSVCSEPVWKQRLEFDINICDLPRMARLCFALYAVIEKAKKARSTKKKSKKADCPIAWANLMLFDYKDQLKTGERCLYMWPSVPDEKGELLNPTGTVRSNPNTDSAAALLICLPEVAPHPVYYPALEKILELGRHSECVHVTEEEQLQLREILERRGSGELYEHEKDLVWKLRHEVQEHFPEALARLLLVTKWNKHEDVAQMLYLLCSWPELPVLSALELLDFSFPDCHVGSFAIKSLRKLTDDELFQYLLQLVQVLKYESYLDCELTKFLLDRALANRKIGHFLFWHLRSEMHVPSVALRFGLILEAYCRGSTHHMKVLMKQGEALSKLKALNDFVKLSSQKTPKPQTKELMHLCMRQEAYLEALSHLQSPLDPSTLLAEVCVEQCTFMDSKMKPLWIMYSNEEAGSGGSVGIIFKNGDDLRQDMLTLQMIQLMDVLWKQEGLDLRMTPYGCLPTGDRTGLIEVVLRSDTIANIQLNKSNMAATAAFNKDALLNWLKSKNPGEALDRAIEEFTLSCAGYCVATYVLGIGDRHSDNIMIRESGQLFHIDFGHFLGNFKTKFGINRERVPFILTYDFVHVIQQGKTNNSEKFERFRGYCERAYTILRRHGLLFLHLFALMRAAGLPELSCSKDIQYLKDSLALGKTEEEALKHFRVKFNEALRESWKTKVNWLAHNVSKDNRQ

[32] = test system: NCI-H23; assay: Antiproliferative activity against human NCI-H23 cells assessed as reduction in cell viability incubated for 72 hrs measured after 4 hrs of MTT addition by MTT assay; type: functional, cell-based
[33] = Cmax in ICR mouse at 40 mg/kg, po measured upto 24 hrs by LC-MS/MS analysis; type: ADME, organism-based; set-up: route oral, dose 40 mg/kg, time <=24; settings: in vivo
[34] = Kinetic solubility of compound in PBS buffer at pH 7.4; type: physicochemical; settings: read-out: Kinetic_solubility
[35] = test system: MG-63; assay: Antiproliferative activity against human MG-63 cells assessed as reduction in cell viability incubated for 72 hrs measured after 4 hrs of MTT addition by MTT assay; type: functional, cell-based
[36] = test system: SNU-638; assay: Antiproliferative activity against human SNU-638 cells assessed as reduction in cell viability incubated for 72 hrs measured after 4 hrs of MTT addition by MTT assay; type: functional, cell-based
[37] = test system: HGC-27; assay: Antiproliferative activity against human HGC-27 cells assessed as reduction in cell viability incubated for 72 hrs measured after 4 hrs of MTT addition by MTT assay; type: functional, cell-based

Structure (SMILES) | inhibition [1] | IC50 [2] | IC50 [3] | AUC(0-inf) [4] | IC50 [5] | inhibition [6] | inhibition in vivo at 40 mg/kg [7] | Activity [8] | AUC(0-t) at 24 h [9] | AUC(0-t) at 24 h [10] | Vd [11] | Activity [12] | inhibition [13] | inhibition [14] | half-life [15] | IC50 [16] | Papp B→A [17] | half-life [18] | IC50 [19] | viability at 0.5 µM [20] | also measured
COc1ncc(-c2nc3c(N4CCOCC4)ncnc3s2)cc1NS(=O)(=O)c1ccc(F)cc1F | Active | 1000 nM | 490 nM | 142000 ng·h/mL | 2 nM | Active | 88.7% | 0.23% | 126000 ng·h/mL | 23200 ng·h/mL | 0.513 L/kg | 4.53% | Dose-dependent effect | Dose-dependent effect | 2.25 h | 720 nM | 43.4 ×10⁻⁶ cm/s | 6.3 h | 1.7 nM | 77.7% | inhibition [21]: Active; IC50 [22]: 1100 nM; inhibition [23]: Dose-dependent effect; IC50 [24]: 1100 nM; IC50 [25]: 1100 nM; IC50 [26]: 930 nM; IC50 [27]: 670 nM; inhibition [28]: inactive; AUC(0-inf) [29]: 25300 ng·h/mL; IC50 [30]: 640 nM; IC50 [31]: 1 nM; IC50 [32]: 580 nM; Cmax [33]: 9610 ng/mL; solubility kinetic [34]: 6.31 µM (≈ 3.28 µg/mL); IC50 [35]: 360 nM; IC50 [36]: 690 nM; IC50 [37]: 40 nM
COc1ncc(-c2cc3c(N4CCOCC4)ncnc3s2)cc1NS(=O)(=O)c1ccc(F)cc1F | Active | 5200 nM | 4000 nM | 187000 ng·h/mL | 12 nM | Active | 58.2% | 0.26% | 143000 ng·h/mL | 14300 ng·h/mL | 0.537 L/kg | 8.87% | Dose-dependent effect | Dose-dependent effect | 1.36 h | 3900 nM | 37.6 ×10⁻⁶ cm/s | 13.7 h | 7.2 nM | 75.1% | inhibition [21]: Active; IC50 [22]: 2600 nM; inhibition [23]: Dose-dependent effect; IC50 [24]: 4200 nM; IC50 [25]: 2900 nM; IC50 [26]: 4700 nM; IC50 [27]: 6800 nM; inhibition [28]: inactive; AUC(0-inf) [29]: 14600 ng·h/mL; IC50 [30]: 5200 nM; IC50 [31]: 3.9 nM; IC50 [32]: 4400 nM; Cmax [33]: 22500 ng/mL; solubility kinetic [34]: 10.3 µM (≈ 5.35 µg/mL); IC50 [35]: 7000 nM; IC50 [36]: 2400 nM; IC50 [37]: 390 nM
